# Laboratory results reported in patent publication US11109593B2, “Isoxazolin-5-one derivative and herbicide containing same as active ingredient” (HOKKO CHEMICAL INDUSTRY CO., LTD., priority 2017, dated 2021).
# System: Scirpus juncoides
# Assay: Test Example 2: herbicidal effect test by treatment during growing period in paddy rice cultivation (seven days after seeding)
# Format: in vivo
# Details: 120 g/10a active ingredient, assessed 14 days after treatment, dry weight vs untreated area
# Procedure, shortened: (§1)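 Sow 30 seeds per species (0–1 cm) into puddled, fertilized paddy soil; keep flooded ~3 cm in greenhouse. Day 7 after seeding: drop water-diluted emulsion, 120 g a.i./10 ares. Harvest 14 d post-treatment; compare dry weight with untreated pots (duplicate).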
row,SMILES,Herbicidal rate (%) Scirpus juncoides
1,Cc1c(Cc2ccccc2N(S(=O)(=O)C(F)(F)F)S(=O)(=O)C(F)(F)F)c(=O)on1Cc1ccc(F)cc1Cl [Compound 1-1028],0%
2,Cc1c(Cc2ccccc2N(S(=O)(=O)C(F)(F)F)S(=O)(=O)C(F)(F)F)c(=O)on1CC(F)(F)c1ccccc1 [Compound 1-1047],80%
3,Cc1c(Cc2ccccc2N(C(=O)OCC(C)C)S(=O)(=O)C(F)(F)F)c(=O)on1Cc1ccccc1 [Compound 1-677],90%
4,Cc1c(Cc2ccccc2NS(=O)(=O)C(F)(F)F)c(=O)on1Cc1ccc(Cl)cc1 [Compound 1-186],80%
5,Cc1c(Cc2ccccc2NS(=O)(=O)C(F)(F)F)c(=O)on1Cc1ccc(F)c(Cl)c1 [Compound 1-202],40%
6,Cc1c(Cc2ccccc2NS(=O)(=O)C(F)(F)F)c(=O)on1Cc1cccc(C(F)(F)F)c1 [Compound 1-193],70%
7,Cc1c(Cc2ccccc2N(S(=O)(=O)C(F)(F)F)S(=O)(=O)C(F)(F)F)c(=O)on1CC1CC1 [Compound 1-991],90%
8,Cc1c(Cc2ccccc2NS(=O)(=O)C(F)(F)F)c(=O)on1Cc1cccs1 [Compound 1-231],60%
9,Cc1c(Cc2c(Cl)cccc2NS(=O)(=O)C(F)(F)F)c(=O)on1C(C)C [Compound 1-46],60%
10,Cc1c(Cc2ccccc2N(S(=O)(=O)C(F)(F)F)S(=O)(=O)C(F)(F)F)c(=O)on1Cc1ccc(F)c(F)c1 [Compound 1-1027],40%

# System: Echinochloa crus-galli
# Assay: as above
# Format: in vivo
# Details: 120 g/10a active ingredient, assessed 14 days after treatment, dry weight vs untreated area
# Procedure, shortened: as §1
row,SMILES,Herbicidal rate (%) Echinochloa crus-galli
1,Cc1c(Cc2ccccc2N(S(=O)(=O)C(F)(F)F)S(=O)(=O)C(F)(F)F)c(=O)on1Cc1ccc(F)cc1Cl [Compound 1-1028],0%
2,Cc1c(Cc2ccccc2N(S(=O)(=O)C(F)(F)F)S(=O)(=O)C(F)(F)F)c(=O)on1CC(F)(F)c1ccccc1 [Compound 1-1047],80%
3,Cc1c(Cc2ccccc2N(C(=O)OCC(C)C)S(=O)(=O)C(F)(F)F)c(=O)on1Cc1ccccc1 [Compound 1-677],70%
4,Cc1c(Cc2ccccc2NS(=O)(=O)C(F)(F)F)c(=O)on1Cc1ccc(Cl)cc1 [Compound 1-186],50%
5,Cc1c(Cc2ccccc2NS(=O)(=O)C(F)(F)F)c(=O)on1Cc1ccc(F)c(Cl)c1 [Compound 1-202],40%
6,Cc1c(Cc2ccccc2NS(=O)(=O)C(F)(F)F)c(=O)on1Cc1cccc(C(F)(F)F)c1 [Compound 1-193],60%
7,Cc1c(Cc2ccccc2N(S(=O)(=O)C(F)(F)F)S(=O)(=O)C(F)(F)F)c(=O)on1CC1CC1 [Compound 1-991],90%
8,Cc1c(Cc2ccccc2NS(=O)(=O)C(F)(F)F)c(=O)on1Cc1cccs1 [Compound 1-231],60%
9,Cc1c(Cc2c(Cl)cccc2NS(=O)(=O)C(F)(F)F)c(=O)on1C(C)C [Compound 1-46],40%
10,Cc1c(Cc2ccccc2N(S(=O)(=O)C(F)(F)F)S(=O)(=O)C(F)(F)F)c(=O)on1Cc1ccc(F)c(F)c1 [Compound 1-1027],40%

# System: broad leaf weeds (Lindernia pyxidaria and Monochoria vaginalis)
# Assay: as above
# Format: in vivo
# Details: Lindernia pyxidaria, 120 g/10a active ingredient, assessed 14 days after treatment, dry weight vs untreated area
# Procedure, shortened: as §1
row,SMILES,Herbicidal rate (%) Lindernia pyxidaria
1,Cc1c(Cc2ccccc2N(S(=O)(=O)C(F)(F)F)S(=O)(=O)C(F)(F)F)c(=O)on1Cc1ccc(F)cc1Cl [Compound 1-1028],40%
2,Cc1c(Cc2ccccc2N(S(=O)(=O)C(F)(F)F)S(=O)(=O)C(F)(F)F)c(=O)on1CC(F)(F)c1ccccc1 [Compound 1-1047],90%
3,Cc1c(Cc2ccccc2N(C(=O)OCC(C)C)S(=O)(=O)C(F)(F)F)c(=O)on1Cc1ccccc1 [Compound 1-677],80%
4,Cc1c(Cc2ccccc2NS(=O)(=O)C(F)(F)F)c(=O)on1Cc1ccc(Cl)cc1 [Compound 1-186],80%
5,Cc1c(Cc2ccccc2NS(=O)(=O)C(F)(F)F)c(=O)on1Cc1ccc(F)c(Cl)c1 [Compound 1-202],60%
6,Cc1c(Cc2ccccc2NS(=O)(=O)C(F)(F)F)c(=O)on1Cc1cccc(C(F)(F)F)c1 [Compound 1-193],80%
7,Cc1c(Cc2ccccc2N(S(=O)(=O)C(F)(F)F)S(=O)(=O)C(F)(F)F)c(=O)on1CC1CC1 [Compound 1-991],70%
8,Cc1c(Cc2ccccc2NS(=O)(=O)C(F)(F)F)c(=O)on1Cc1cccs1 [Compound 1-231],40%
9,Cc1c(Cc2c(Cl)cccc2NS(=O)(=O)C(F)(F)F)c(=O)on1C(C)C [Compound 1-46],40%
10,Cc1c(Cc2ccccc2N(S(=O)(=O)C(F)(F)F)S(=O)(=O)C(F)(F)F)c(=O)on1Cc1ccc(F)c(F)c1 [Compound 1-1027],40%

# Same assay, conditions: Monochoria vaginalis, 120 g/10a active ingredient, assessed 14 days after treatment, dry weight vs untreated area
row,SMILES,Herbicidal rate (%) Monochoria vaginalis
1,Cc1c(Cc2ccccc2N(S(=O)(=O)C(F)(F)F)S(=O)(=O)C(F)(F)F)c(=O)on1Cc1ccc(F)cc1Cl [Compound 1-1028],40%
2,Cc1c(Cc2ccccc2N(S(=O)(=O)C(F)(F)F)S(=O)(=O)C(F)(F)F)c(=O)on1CC(F)(F)c1ccccc1 [Compound 1-1047],80%
3,Cc1c(Cc2ccccc2N(C(=O)OCC(C)C)S(=O)(=O)C(F)(F)F)c(=O)on1Cc1ccccc1 [Compound 1-677],80%
4,Cc1c(Cc2ccccc2NS(=O)(=O)C(F)(F)F)c(=O)on1Cc1ccc(Cl)cc1 [Compound 1-186],80%
5,Cc1c(Cc2ccccc2NS(=O)(=O)C(F)(F)F)c(=O)on1Cc1ccc(F)c(Cl)c1 [Compound 1-202],60%
6,Cc1c(Cc2ccccc2NS(=O)(=O)C(F)(F)F)c(=O)on1Cc1cccc(C(F)(F)F)c1 [Compound 1-193],80%
7,Cc1c(Cc2ccccc2N(S(=O)(=O)C(F)(F)F)S(=O)(=O)C(F)(F)F)c(=O)on1CC1CC1 [Compound 1-991],80%
8,Cc1c(Cc2ccccc2NS(=O)(=O)C(F)(F)F)c(=O)on1Cc1cccs1 [Compound 1-231],40%
9,Cc1c(Cc2c(Cl)cccc2NS(=O)(=O)C(F)(F)F)c(=O)on1C(C)C [Compound 1-46],40%
10,Cc1c(Cc2ccccc2N(S(=O)(=O)C(F)(F)F)S(=O)(=O)C(F)(F)F)c(=O)on1Cc1ccc(F)c(F)c1 [Compound 1-1027],40%

# System: Scirpus juncoides
# Assay: Test Example 1: herbicidal effect test by treatment of rice paddy soil (immediately after seeding)
# Format: in vivo
# Details: 120 g/10a active ingredient, dry weight vs untreated area, 14 days after treatment
# Procedure, shortened: (§2)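 Application occurs immediately after seeding, with diluted emulsion added to paddy water (about 3 cm deep) over puddled, fertilized soil at 120 g active ingredient per 10 ares. Herbicidal rate is calculated from mean dry weight against untreated controls 14 days later.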
row,SMILES,Herbicidal rate (%) Scirpus juncoides
1,Cc1c(Cc2ccccc2N(S(=O)(=O)C(F)(F)F)S(=O)(=O)C(F)(F)F)c(=O)on1Cc1ccc(F)cc1Cl [Compound 1-1028],40%
2,Cc1c(Cc2ccccc2N(S(=O)(=O)C(F)(F)F)S(=O)(=O)C(F)(F)F)c(=O)on1CC(F)(F)c1ccccc1 [Compound 1-1047],90%
3,Cc1c(Cc2ccccc2N(C(=O)OCC(C)C)S(=O)(=O)C(F)(F)F)c(=O)on1Cc1ccccc1 [Compound 1-677],90%
4,Cc1c(Cc2ccccc2NS(=O)(=O)C(F)(F)F)c(=O)on1Cc1ccc(Cl)cc1 [Compound 1-186],90%
5,Cc1c(Cc2ccccc2NS(=O)(=O)C(F)(F)F)c(=O)on1Cc1ccc(F)c(Cl)c1 [Compound 1-202],80%
6,Cc1c(Cc2ccccc2NS(=O)(=O)C(F)(F)F)c(=O)on1Cc1cccc(C(F)(F)F)c1 [Compound 1-193],90%
7,Cc1c(Cc2ccccc2N(S(=O)(=O)C(F)(F)F)S(=O)(=O)C(F)(F)F)c(=O)on1CC1CC1 [Compound 1-991],90%
8,Cc1c(Cc2ccccc2NS(=O)(=O)C(F)(F)F)c(=O)on1Cc1cccs1 [Compound 1-231],80%
9,Cc1c(Cc2c(Cl)cccc2NS(=O)(=O)C(F)(F)F)c(=O)on1C(C)C [Compound 1-46],90%
10,Cc1c(Cc2ccccc2N(S(=O)(=O)C(F)(F)F)S(=O)(=O)C(F)(F)F)c(=O)on1Cc1ccc(F)c(F)c1 [Compound 1-1027],80%

# System: Echinochloa crus-galli
# Assay: as above
# Format: in vivo
# Details: 120 g/10a active ingredient, dry weight vs untreated area, 14 days after treatment
# Procedure, shortened: as §2
row,SMILES,Herbicidal rate (%) Echinochloa crus-galli
1,Cc1c(Cc2ccccc2N(S(=O)(=O)C(F)(F)F)S(=O)(=O)C(F)(F)F)c(=O)on1Cc1ccc(F)cc1Cl [Compound 1-1028],80%
2,Cc1c(Cc2ccccc2N(S(=O)(=O)C(F)(F)F)S(=O)(=O)C(F)(F)F)c(=O)on1CC(F)(F)c1ccccc1 [Compound 1-1047],90%
3,Cc1c(Cc2ccccc2N(C(=O)OCC(C)C)S(=O)(=O)C(F)(F)F)c(=O)on1Cc1ccccc1 [Compound 1-677],90%
4,Cc1c(Cc2ccccc2NS(=O)(=O)C(F)(F)F)c(=O)on1Cc1ccc(Cl)cc1 [Compound 1-186],90%
5,Cc1c(Cc2ccccc2NS(=O)(=O)C(F)(F)F)c(=O)on1Cc1ccc(F)c(Cl)c1 [Compound 1-202],100%
6,Cc1c(Cc2ccccc2NS(=O)(=O)C(F)(F)F)c(=O)on1Cc1cccc(C(F)(F)F)c1 [Compound 1-193],90%
7,Cc1c(Cc2ccccc2N(S(=O)(=O)C(F)(F)F)S(=O)(=O)C(F)(F)F)c(=O)on1CC1CC1 [Compound 1-991],90%
8,Cc1c(Cc2ccccc2NS(=O)(=O)C(F)(F)F)c(=O)on1Cc1cccs1 [Compound 1-231],90%
9,Cc1c(Cc2c(Cl)cccc2NS(=O)(=O)C(F)(F)F)c(=O)on1C(C)C [Compound 1-46],60%
10,Cc1c(Cc2ccccc2N(S(=O)(=O)C(F)(F)F)S(=O)(=O)C(F)(F)F)c(=O)on1Cc1ccc(F)c(F)c1 [Compound 1-1027],90%

# System: broad leaf weeds (Lindernia pyxidaria and Monochoria vaginalis)
# Assay: as above
# Format: in vivo
# Details: Lindernia pyxidaria, 120 g/10a active ingredient, dry weight vs untreated area, 14 days after treatment
# Procedure, shortened: as §2
row,SMILES,Herbicidal rate (%) Lindernia pyxidaria
1,Cc1c(Cc2ccccc2N(S(=O)(=O)C(F)(F)F)S(=O)(=O)C(F)(F)F)c(=O)on1Cc1ccc(F)cc1Cl [Compound 1-1028],80%
2,Cc1c(Cc2ccccc2N(S(=O)(=O)C(F)(F)F)S(=O)(=O)C(F)(F)F)c(=O)on1CC(F)(F)c1ccccc1 [Compound 1-1047],100%
3,Cc1c(Cc2ccccc2N(C(=O)OCC(C)C)S(=O)(=O)C(F)(F)F)c(=O)on1Cc1ccccc1 [Compound 1-677],100%
4,Cc1c(Cc2ccccc2NS(=O)(=O)C(F)(F)F)c(=O)on1Cc1ccc(Cl)cc1 [Compound 1-186],100%
5,Cc1c(Cc2ccccc2NS(=O)(=O)C(F)(F)F)c(=O)on1Cc1ccc(F)c(Cl)c1 [Compound 1-202],100%
6,Cc1c(Cc2ccccc2NS(=O)(=O)C(F)(F)F)c(=O)on1Cc1cccc(C(F)(F)F)c1 [Compound 1-193],100%
7,Cc1c(Cc2ccccc2N(S(=O)(=O)C(F)(F)F)S(=O)(=O)C(F)(F)F)c(=O)on1CC1CC1 [Compound 1-991],100%
8,Cc1c(Cc2ccccc2NS(=O)(=O)C(F)(F)F)c(=O)on1Cc1cccs1 [Compound 1-231],80%
9,Cc1c(Cc2c(Cl)cccc2NS(=O)(=O)C(F)(F)F)c(=O)on1C(C)C [Compound 1-46],80%
10,Cc1c(Cc2ccccc2N(S(=O)(=O)C(F)(F)F)S(=O)(=O)C(F)(F)F)c(=O)on1Cc1ccc(F)c(F)c1 [Compound 1-1027],100%

# Same assay, conditions: Monochoria vaginalis, 120 g/10a active ingredient, dry weight vs untreated area, 14 days after treatment
row,SMILES,Herbicidal rate (%) Monochoria vaginalis
1,Cc1c(Cc2ccccc2N(S(=O)(=O)C(F)(F)F)S(=O)(=O)C(F)(F)F)c(=O)on1Cc1ccc(F)cc1Cl [Compound 1-1028],90%
2,Cc1c(Cc2ccccc2N(S(=O)(=O)C(F)(F)F)S(=O)(=O)C(F)(F)F)c(=O)on1CC(F)(F)c1ccccc1 [Compound 1-1047],80%
3,Cc1c(Cc2ccccc2N(C(=O)OCC(C)C)S(=O)(=O)C(F)(F)F)c(=O)on1Cc1ccccc1 [Compound 1-677],100%
4,Cc1c(Cc2ccccc2NS(=O)(=O)C(F)(F)F)c(=O)on1Cc1ccc(Cl)cc1 [Compound 1-186],100%
5,Cc1c(Cc2ccccc2NS(=O)(=O)C(F)(F)F)c(=O)on1Cc1ccc(F)c(Cl)c1 [Compound 1-202],90%
6,Cc1c(Cc2ccccc2NS(=O)(=O)C(F)(F)F)c(=O)on1Cc1cccc(C(F)(F)F)c1 [Compound 1-193],100%
7,Cc1c(Cc2ccccc2N(S(=O)(=O)C(F)(F)F)S(=O)(=O)C(F)(F)F)c(=O)on1CC1CC1 [Compound 1-991],100%
8,Cc1c(Cc2ccccc2NS(=O)(=O)C(F)(F)F)c(=O)on1Cc1cccs1 [Compound 1-231],90%
9,Cc1c(Cc2c(Cl)cccc2NS(=O)(=O)C(F)(F)F)c(=O)on1C(C)C [Compound 1-46],80%
10,Cc1c(Cc2ccccc2N(S(=O)(=O)C(F)(F)F)S(=O)(=O)C(F)(F)F)c(=O)on1Cc1ccc(F)c(F)c1 [Compound 1-1027],100%
